Test results as given in publication PMC7738869, “A novel STAT3 inhibitor W2014-S regresses human non-small cell lung cancer xenografts and sensitizes EGFR-TKI acquired resistance” (Theranostics, 2021).
“And” between values parts separate entries of the source, which are not always exact repeats. Equal entries are not always repeated. Where two headings read alike, the source gives them in different places.

How the values were obtained:
Pharmacokinetic study = type: in vivo, SD rats
Method: W2014-S was given to SD rats (male, 230-260g, n = 6) by gavage and intravenous administration. The rats were fasted for 12 h before administration and remained fasting for 2 h. For oral gavage, W2014-S was dissolved in DMSO/0.5% HPMC (5/95, v/v/), and W2014-S was dissolved in DMSO/EtOH/PEG300/0.9% NaCl (5/5/40/50, v/v/v/v) for intravenous administration. The pharmacokinetic (PK) profiles were next evaluated in SD rats.

STAT3 = assay: STAT3-dependent dual-luciferase reporter assay in A549 cells; type: cell-based, human; settings: A549, 0, 0.3, 1 μM, 24 h
Method: The STAT3-dependent luciferase reporter, pGL3-STAT3, contained seven copies of the STAT3-specific binding sequence ([…]) in the C-reactive protein gene promoter, and drove firefly luciferase expression. The new construct was confirmed by sequencing. For luciferase studies, 293T cells or A549 cells in 96-well plates were transiently co-transfected with the appropriate plasmids (10 ng TKRL as internal control vector for normalizing and 50 ng of pGL3-STAT3) using Lipofectamine 2000 (11668500, Invitrogen, Carlsbad, CA, USA) which was following the manufacturer's protocol. After 24 h, HEK-293T cells were treated with 0-1 μM W2014-S for 24 h, and stimulated with IL-6 (100 ng/mL, PeproTech) for 1 h or EGF (50 ng/mL, PeproTech) for 30 min. Subsequently, cytosolic extracts were prepared for dual-luciferase reporter assay.

STAT1 and STAT5 = assay: Western blot of STAT1 and STAT5 activation in A549 and PC-9 cells; type: cell-based, human
Method: Cells or tumor tissue were lysed with RIPA buffer (Beyotime, Shanghai, China) supplemented with protease inhibitors (Beyotime, Shanghai, China) and phosphatase inhibitors (Bimake, USA). Lysates were denatured by heating for 5 min at 99 °C and loaded on 4-10% SDS-polyacrylamide gel electrophoresis. Then the proteins were transferred to polyvinylidene fluoride (PVDF) membranes (Millipore, USA). The membranes were blocked and probed with primary antibodies and secondary HPR-conjugated antibodies. At last the membranes were detected by chemiluminescence (Tanon, Shanghai, China). For co-immunoprecipitation experiments, 293T cells were plated and grew to about 80% confluency, then co-transfected with plasmids of HA-STAT3 and Flag-STAT3 using Lipofectamine 2000. After 24 h, cells were treated with different concentrations of W2014-S for following 24 h, and stimulated with IL-6 (100 ng/mL) for 1 h. Cells were lysed with IP RIPA buffer (Beyotime, Shanghai, China) supplemented with protease inhibitors (Beyotime, Shanghai, China) and phosphatase inhibitors (Bimake, America), and lysates were cultured with Anti-flag Affinity Gel (B23102, Bimake, USA) overnight at 4 ℃. The gel was washed by PBST for three times and added 1×loading buffer and denatured by heating for 5 min at 99 ℃. Then the proteins were resolved on SDS-PAGE, transferred to PVDF membranes and analysed with immunoblotting.

[1] = rat, i.v. 3 mg/kg, individual animals 4-6, 3 mg/kg
[2] = rat, p.o. 10 mg/kg, individual animals 1-3, 10 mg/kg

SMILES: C[C@H](Oc1ccc(-c2nc3nc(C4=CCN(C(=O)OC(C)(C)C)CC4)ccc3[nH]2)cc1)c1ccccc1 [W2014-S]
- AUC(0-inf) (Pharmacokinetic study; male, SD, rat, plasma, po, 10 mg/kg, rat, p.o. 10 mg/kg, individual animals 1-3, read-out: AUCINF_obs): 57.9 ng·h/mL
- AUC(0-t) (Pharmacokinetic study; male, SD, rat, plasma, po, 10 mg/kg, rat, p.o. 10 mg/kg, individual animals 1-3, read-out: AUClast): 54.6 ng·h/mL
- half-life (Pharmacokinetic study; male, Sprague-Dawley (SD), rat, plasma, iv, 3 mg/kg, SD rats, 3 mg/kg iv, mean): 13.6 h
- AUC(0-inf) (Pharmacokinetic study; male, Sprague-Dawley (SD), rat, plasma, iv, 3 mg/kg, SD rats, 3 mg/kg iv, mean, read-out: AUC0-inf): 244 ng·h/mL
- AUC(0-t) (Pharmacokinetic study; male, Sprague-Dawley (SD), rat, plasma, iv, 3 mg/kg, SD rats, 3 mg/kg iv, mean, read-out: AUC0-last): 222 ng·h/mL
- clearance (Pharmacokinetic study; male, Sprague-Dawley (SD), rat, plasma, iv, 3 mg/kg, SD rats, 3 mg/kg iv, mean, read-out: CL): 206 mL/min/kg
- half-life (Pharmacokinetic study; male, Sprague-Dawley (SD), rat, plasma, po, 10 mg/kg, SD rats, 10 mg/kg po, mean): 1.46 h
- AUC(0-inf) (Pharmacokinetic study; male, Sprague-Dawley (SD), rat, plasma, po, 10 mg/kg, SD rats, 10 mg/kg po, mean, read-out: AUC0-inf): 56.1 ng·h/mL
- AUC(0-t) (Pharmacokinetic study; male, Sprague-Dawley (SD), rat, plasma, po, 10 mg/kg, SD rats, 10 mg/kg po, mean, read-out: AUC0-last): 54.6 ng·h/mL
- Cmax (Pharmacokinetic study; male, Sprague-Dawley (SD), rat, plasma, po, 10 mg/kg, SD rats, 10 mg/kg po, mean, read-out: Cmax): 23.8 ng/mL
- Tmax (Pharmacokinetic study; male, Sprague-Dawley (SD), rat, plasma, po, 10 mg/kg, SD rats, 10 mg/kg po, mean, read-out: Tmax): 1.67 h
- MRT inf (Pharmacokinetic study; male, Sprague-Dawley (SD), rat, plasma, po, 10 mg/kg, rat, p.o. 10 mg/kg, mean, read-out: MRTINF_obs): 2.61 h
- Vd (Pharmacokinetic study; male, Sprague-Dawley (SD), rat, plasma, SD rats, 3 mg/kg iv, mean, read-out: Vss): 77.5 L/kg
- bioavailability (Pharmacokinetic study; male, Sprague-Dawley (SD), rat, plasma, SD rats, 10 mg/kg po vs 3 mg/kg iv): 7.39%
- Concentration in rat plasma, individual animals 1-3 (Pharmacokinetic study; p.o. 10 mg/kg, 0.25 h, 10 mg/kg): 29.9 ng/mL and 7.10 ng/mL and 21.9 ng/mL
- Concentration in rat plasma, individual animals 1-3 (Pharmacokinetic study; p.o. 10 mg/kg, 0.50 h, 10 mg/kg): 10.0 ng/mL and 27.4 ng/mL and 30.0 ng/mL
- Concentration in rat plasma, individual animals 1-3 (Pharmacokinetic study; p.o. 10 mg/kg, 1.00 h, 10 mg/kg): 8.00 ng/mL and 18.7 ng/mL and 21.7 ng/mL
- Concentration in rat plasma, individual animals 1-3 (Pharmacokinetic study; p.o. 10 mg/kg, 2.00 h, 10 mg/kg): 9.40 ng/mL and 6.60 ng/mL
- Concentration in rat plasma, individual animals 1-3 (Pharmacokinetic study; p.o. 10 mg/kg, 4.00 h, 10 mg/kg): 13.9 ng/mL and 4.80 ng/mL (2×)
- Concentration in rat plasma, individual animals 1-3 (Pharmacokinetic study; p.o. 10 mg/kg, 8.00 h, 10 mg/kg): 1.20 ng/mL and 0.400 ng/mL and 0.300 ng/mL
- Concentration in rat plasma, individual animals 1-3 (Pharmacokinetic study; p.o. 10 mg/kg, 24.0 h, BLQ: Below LLOQ (LLOQ = 0.3 ng/mL)): BLQ
- AUCINF_obs (Pharmacokinetic study; [1]): 247 ng·h/mL and 255 ng·h/mL
- AUClast (Pharmacokinetic study; [1]): 220 ng·h/mL and 236 ng·h/mL
- CL_obs (Pharmacokinetic study; [1]): 202 mL/min/kg and 196 mL/min/kg
- MRTINF_obs (Pharmacokinetic study; [1]): 7.48 h and 5.59 h
- T1/2 (Pharmacokinetic study; [1]): 14.2 h and 11.2 h
- Vss_obs (Pharmacokinetic study; [1]): 76.143 L/kg and 90.763 L/kg and 65.72 L/kg
- Vss_obs (Pharmacokinetic study; rat, i.v. 3 mg/kg, mean): 77.542 L/kg
- AUCINF_obs (Pharmacokinetic study; [2]): 55.3 ng·h/mL and 55.0 ng·h/mL
- AUClast (Pharmacokinetic study; [2]): 54.5 ng·h/mL
- Cmax (Pharmacokinetic study; [2]): 13.9 ng/mL and 27.4 ng/mL and 30.0 ng/mL
- MRTINF_obs (Pharmacokinetic study; [2]): 3.89 h and 2.08 h and 1.87 h
- T1/2 (Pharmacokinetic study; [2]): 1.88 h and 1.29 h
- Tmax (Pharmacokinetic study; [2]): 4.00 h and 0.50 h (2×)
- STAT3 transcriptional activity (luciferase reporter) (STAT3): inhibited
- STAT1 and STAT5 activation (STAT1 and STAT5): no obvious effect
